Test results taken from US10654884B2 (Vitae Pharmaceuticals, Inc., priority 2014, dated 2020).

biological target: T1, human CD73 (Homo sapiens, UniProt P21589); assay: Inhibition of 5′-Nucleotidase Activity of CD73 (Assay 1); type: biochemical; settings: Assay 1: IC50, inhibition of 5′-nucleotidase activity of CD73, human CD73 4 ng/ml, 50 μM CMP, 20 min at RT, malachite green readout
T1 construct: purchased R&D Systems 5795-EN-010
T1 sequence (P21589 27-549): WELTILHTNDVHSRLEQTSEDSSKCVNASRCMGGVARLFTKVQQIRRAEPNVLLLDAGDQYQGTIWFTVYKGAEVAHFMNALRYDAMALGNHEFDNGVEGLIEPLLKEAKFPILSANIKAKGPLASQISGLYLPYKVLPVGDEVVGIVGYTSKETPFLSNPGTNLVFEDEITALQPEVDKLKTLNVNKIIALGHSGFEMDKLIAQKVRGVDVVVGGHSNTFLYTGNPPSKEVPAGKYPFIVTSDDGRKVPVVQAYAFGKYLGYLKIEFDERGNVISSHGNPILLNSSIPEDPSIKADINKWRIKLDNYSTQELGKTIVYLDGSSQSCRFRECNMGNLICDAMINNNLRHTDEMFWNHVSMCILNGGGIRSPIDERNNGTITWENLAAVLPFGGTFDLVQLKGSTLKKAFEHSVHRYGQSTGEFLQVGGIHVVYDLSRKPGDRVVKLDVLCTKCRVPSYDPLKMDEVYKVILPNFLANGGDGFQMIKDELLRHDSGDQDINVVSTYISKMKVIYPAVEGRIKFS
Procedure: Inhibition of 5′-Nucleotidase Activity of CD73 (Assay 1)
Compounds of the present invention were tested for the ability to inhibit CD73 enzyme activity. Tested compounds were dissolved in DMSO (50× final concentration), and 3.2 μL of the solutions added to 96-well polystyrene plates. To these wells were added, 100 μL of human CD73 (R&D Systems Cat. No. 5795-EN-010) and 57 μL of cytidine-5′-monophosphate (CMP) solutions in assay buffer (25 mM Tris-HCl, pH 7.4, 0.005% Brij-35) were added to achieve final concentrations in the assay of 4 ng/ml CD73 and 50 μM of CMP. The assay mixture was incubated for 20 min at RT. The reaction was stopped by addition of 40 μL of malachite green reagent which was prepared by mixing together 10 ml 2M H2SO4, 2.5 ml of 15% ammonium molybdate and 0.2 ml of 11% Tween-20. The mixture was agitated vigorously for 10 min at RT, and absorbance at 620 nm was determined on a microplate spectrophotometer. […] The IC50 values were derived using a non-linear 4 parameter logistic model (XLFit software, IDBS) and correspond to the inflection points on dose-response curves.

Row | Compound | IC50
1 | CCNc1nc(Cl)nc2c1ncn2[C@@H]1O[C@H](CO[C@](C)(C(=O)OCC)P(=O)(O)OCC)[C@@H](O)[C@H]1O (single isomer, unassigned) [Example 80a] | > 1000 nM
2 | CCNc1nc(Cl)nc2c1ncn2[C@@H]1O[C@H](CO[C@@](C)(C(=O)OCC)P(=O)(O)OCC)[C@@H](O)[C@H]1O (single isomer, unassigned) [Example 80] | > 1000 nM

same assay, conditions: human CD73 4 ng/ml, 50 μM CMP, 20 min at RT, malachite green readout; read-out: Assay 1: IC50, inhibition of 5′-nucleotidase activity of CD73

Row | IC50 | Compound
3 | > 1000 nM | CCOC(=O)[C@@H](OC[C@H]1O[C@@H](n2cnc3c(N)nc(C4CC4)nc32)[C@H](O)[C@@H]1O)P(=O)(O)O (single isomer, unassigned) [Example 50a]
4 | > 1000 nM | CCCS(=O)(=O)[C@@H](OC[C@H]1O[C@@H](n2cnc3c(N)nc(Cl)nc32)[C@H](O)[C@@H]1O)P(=O)(O)O (single isomer, unassigned) [Example 12a]
5 | > 1000 nM | Nc1ncnc2c1ncn2[C@@H]1O[C@H](CO[C@@H](CO)P(=O)(O)O)[C@@H](O)[C@H]1O (single isomer, unassigned) [Example 57]
6 | > 1000 nM | COC(=O)C(SC[C@H]1O[C@@H](n2cnc3c(N)ncnc32)[C@H](O)[C@@H]1O)P(=O)(O)O (stereo partly drawn) [Example 56, (1-((((2S,3S,4R,5R)-5-(6-amino-9H-purin-9-yl)-3,4-dihydroxytetrahydrofuran-2-yl)methyl)thio)-2-methoxy-2-oxoethyl)phosphonic Acid]
7 | < 100 nM | CCOC(=O)[C@@H](OC[C@H]1O[C@@H](n2cnc3c(N)nc(-c4ccccc4)nc32)[C@H](O)[C@@H]1O)P(=O)(O)O (single isomer, unassigned) [Example 40a]
8 | > 1000 nM | Nc1ncnc2c1ncn2[C@@H]1O[C@H](CO[C@H](CO)P(=O)(O)O)[C@@H](O)[C@H]1O (single isomer, unassigned) [Example 57a]
9 | > 1000 nM | CCOC(=O)[C@@H](OC[C@H]1C[C@@H](n2cnc3cccc(Br)c3c2=O)[C@H](O)[C@@H]1O)P(=O)(O)O (single isomer, unassigned) [Example 72a]
10 | > 1000 nM | CC(C)(C)OC(=O)[C@@H](OC[C@H]1O[C@@H](n2cnc3c(N)nc(CN)nc32)[C@H](O)[C@@H]1O)P(=O)(O)O (single isomer, unassigned) [Example 55a]
11 | > 1000 nM | CCOC(=O)[C@@H](OC[C@H]1C[C@@H](n2cnc3cccc(Cl)c3c2=O)[C@H](O)[C@@H]1O)P(=O)(O)O (single isomer, unassigned) [Example 70a]
12 | > 1000 nM | CC(C)CS(=O)(=O)[C@@H](OC[C@H]1O[C@@H](n2cnc3c(N)nc(Cl)nc32)[C@H](O)[C@@H]1O)P(=O)(O)O (single isomer, unassigned) [Example 13a]
13 | > 1000 nM | CCOC(=O)C(OC[C@H]1O[C@@H](n2cnc3ccc(Cl)nc32)[C@H](O)[C@@H]1O)P(=O)(O)O (single isomer, unassigned) [Example 87a]
14 | > 1000 nM | CS(=O)(=O)C(OC[C@H]1O[C@@H](n2cnc3c(N)nc(Cl)nc32)[C@H](O)[C@@H]1O)P(=O)(O)O (single isomer, unassigned) [Example 10a]
15 | > 1000 nM | Cn1c(=O)ccn([C@@H]2O[C@H](CO[C@H](C(=O)O)P(=O)(O)O)[C@@H](O)[C@H]2O)c1=O (single isomer, unassigned) [Example 60a]
16 | > 1000 nM | CCOC(=O)[C@@H](OC[C@H]1O[C@@H](n2cnc3c(N)nc(C(F)(F)F)nc32)[C@H](O)[C@@H]1O)P(=O)(O)O (single isomer, unassigned) [Example 42a]
17 | > 1000 nM | Nc1ncnc2c1ncn2[C@@H]1O[C@H](COC(C(=O)O)C(=O)O)[C@@H](O)[C@H]1O [Example 8, 2-(((2R,3S,4R,5R)-5-(6-amino-9H-purin-9-yl)-3,4-dihydroxytetrahydrofuran-2-yl)methoxy)malonic acid]
18 | > 1000 nM | CC(C)(C)OC(=O)[C@H](OC[C@H]1O[C@@H](n2cnc3c(N)nc(CN)nc32)[C@H](O)[C@@H]1O)P(=O)(O)O (single isomer, unassigned) [Example 55]
19 | > 1000 nM | CCOC(=O)[C@@H](OC[C@H]1O[C@@H](n2ccc(=O)n(C)c2=O)[C@H](O)[C@@H]1O)P(=O)(O)O (single isomer, unassigned) [Example 30a]

Row | IC50 | Compound
20 | > 1000 nM | CCOC(=O)[C@@H](OC[C@H]1O[C@@H](n2cnc3c(N)nc(C4NCCO4)nc32)[C@H](O)[C@@H]1O)P(=O)(O)O (single isomer, unassigned) [Example 51b]
21 | > 1000 nM | CCOC(=O)C(OC[C@H]1O[C@@H](n2cnc3cc(Cl)c(Cl)cc32)[C@H](O)[C@@H]1O)P(=O)(O)O (single isomer, unassigned) [Example 81]
22 | > 1000 nM | CCOC(=O)[C@@H](OC[C@@H]1O[C@H](n2cnc3c(N)nc(C)nc32)[C@@H](O)[C@H]1O)P(=O)(O)O (single isomer, unassigned) [Example 37a]
23 | > 1000 nM | CNC(=O)C(OC[C@H]1O[C@@H](n2ccc(=O)n(C)c2=O)[C@H](O)[C@@H]1O)P(=O)(O)O (stereo partly drawn) [Example 31, (1-(((2R,3S,4R,5R)-3,4-dihydroxy-5-(3-methyl-2,4-dioxo-3,4-dihydropyrimidin-1(2H)-yl)tetrahydrofuran-2-yl)methoxy)-2-(methylamino)-2-oxoethyl)phosphonic Acid]
24 | > 1000 nM | CCNC(=O)C(OC[C@H]1C[C@@H](n2cnc3c(NCC)ncnc32)[C@H](O)[C@@H]1O)P(=O)(O)O (stereo partly drawn) [Example 75, (2-(ethylamino)-1-(((1R,2R,3S,4R)-4-(6-(ethylamino)-9H-purin-9-yl)-2,3-dihydroxycyclopentyl)methoxy)-2-oxoethyl)phosphonic Acid]
25 | > 1000 nM | Nc1ncnc2c1ncn2[C@@H]1O[C@H](COC(C(=O)NO)P(=O)(O)O)[C@@H](O)[C@H]1O (stereo partly drawn) [Example 35, (1-(((2R,3S,4R,5R)-5-(6-amino-9H-purin-9-yl)-3,4-dihydroxytetrahydrofuran-2-yl)methoxy)-2-(hydroxyamino)-2-oxoethyl)phosphonic Acid]
26 | 100 to 1000 nM | CCOC(=O)[C@@](CC(=O)O)(OC[C@H]1O[C@@H](n2cnc3c(N)nc(F)nc32)[C@H](O)[C@@H]1O)P(=O)(O)O (single isomer, unassigned) [Example 79a]
27 | > 1000 nM | O=C(O)C(OC[C@H]1C[C@@H](n2cnc3cccc(Cl)c3c2=O)[C@H](O)[C@@H]1O)P(=O)(O)O (stereo partly drawn) [Example 71, 2-(((1R,2R,3S,4R)-4-(5-chloro-4-oxoquinazolin-3(4H)-yl)-2,3-dihydroxycyclopentyl)methoxy)-2-phosphonoacetic acid]
28 | > 1000 nM | CCNC(=O)C(OC[C@H]1O[C@@H](n2ccc(=O)n(C)c2=O)[C@H](O)[C@@H]1O)P(=O)(O)O (stereo partly drawn) [Example 32, (1-(((2R,3S,4R,5R)-3,4-dihydroxy-5-(3-methyl-2,4-dioxo-3,4-dihydropyrimidin-1(2H)-yl)tetrahydrofuran-2-yl)methoxy)-2-(ethylamino)-2-oxoethyl)phosphonic Acid]
29 | > 1000 nM | CCOC(=O)[C@@H](OC[C@H]1O[C@@H](n2cnc3c(N)nc(-c4cc(F)cc(F)c4)nc32)[C@H](O)[C@@H]1O)P(=O)(O)O (single isomer, unassigned) [Example 41a]
30 | > 1000 nM | Cn1c(=O)ccn([C@@H]2O[C@H](CO[C@@H](C(=O)O)P(=O)(O)O)[C@@H](O)[C@H]2O)c1=O (single isomer, unassigned) [Example 60]
31 | > 1000 nM | O=C(O)C(OC[C@H]1C[C@@H](n2cnc3cccc(Cl)c3c2=O)[C@H](O)[C@@H]1O)C(=O)O [Example 74, 2-(((1R,2R,3S,4R)-4-(5-chloro-4-oxoquinazolin-3(4H)-yl)-2,3-dihydroxycyclopentyl)methoxy)malonic acid]
32 | < 100 nM | Nc1nc(Cl)nc2c1ncn2[C@@H]1O[C@H](COC(C(=O)O)P(=O)(O)O)[C@@H](O)[C@H]1O (single isomer, unassigned) [Example 61a]
33 | > 1000 nM | CCOC(=O)C(OC[C@H]1O[C@@H](n2cnc3cc(Cl)c(Cl)cc32)[C@H](O)[C@@H]1O)P(=O)(O)O (single isomer, unassigned) [Example 81a]
34 | > 1000 nM | CCOC(=O)[C@@H](OC[C@H]1O[C@@H](n2cnc3c(N)nc(CC(C)C)nc32)[C@H](O)[C@@H]1O)P(=O)(O)O (single isomer, unassigned) [Example 46a]
35 | > 1000 nM | CCOC(=O)[C@@H](OC[C@H]1C[C@@H](n2cnc3cccc(C#N)c3c2=O)[C@H](O)[C@@H]1O)P(=O)(O)O (single isomer, unassigned) [Example 73a]
